What all share (experiment): relative viability (nuclei count vs DMSO), 5 days (fraction); higher = more cells survive
Compound in assay [1]: COc1cc2nc(N3CCCN(C)CC3)nc(NC3CCN(Cc4ccccc4)CC3)c2cc1OC + NC(=O)Nc1cc(-c2cccc(F)c2)sc1C(=O)N[C@H]1CCCNC1 [AZD7762] (partner 0.2 µM)
The gist of the method:
(§1)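 For relative viability, nuclei counts in treated wells were divided by those in vehicle wells. Lung cancer cell lines had been pin-tool dosed in 1536-well plates the day after seeding and cultured for 5 days, then fixed and stained in one step (final 0.05% Triton X-100, 1% formaldehyde, 1 ug/ml Hoechst) and imaged at 4×. Doses were one drug alone or a fixed anchor-drug dose plus five library-drug doses (not always all listed) in √10 steps, and values are duplicate-plate medians.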

Compound in assay [2]: COc1cc2nc(N3CCCN(C)CC3)nc(NC3CCN(Cc4ccccc4)CC3)c2cc1OC + O=C(CCCCCCC(=O)Nc1ccccc1)NO [Vorinostat] (partner 1 µM)
The gist of the method: as §1

Compound in the assay “AZD6482 + Foretinib”: Cc1cc([C@@H](C)Nc2ccccc2C(=O)O)c2nc(N3CCOCC3)cc(=O)n2c1 [AZD6482] + COc1cc2c(Oc3ccc(NC(=O)C4(C(=O)Nc5ccc(F)cc5)CC4)cc3F)ccnc2cc1OCCCN1CCOCC1 [Foretinib] (partner 0.25 µM)
The gist of the method: as §1

Compound in the assay “AZD6482 + Crizotinib”: Cc1cc([C@@H](C)Nc2ccccc2C(=O)O)c2nc(N3CCOCC3)cc(=O)n2c1 [AZD6482] + C[C@@H](Oc1cc(-c2cnn(C3CCNCC3)c2)cnc1N)c1c(Cl)ccc(F)c1Cl [Crizotinib] (partner 1 µM)
The gist of the method:
as §1

In the case of NCI-H1666, the relative viability in assay [1] (first compound 0.2 µM) came to 0.901; in assay [1] (first compound 0.6325 µM), 0.809; in assay [1] (first compound 2 µM), 0.76; in assay [1] (first compound 6.325 µM), 0.746; in assay [2] (first compound 0.2 µM) it was 1.08; in assay [2] (first compound 0.6325 µM), 0.943. Further, the relative viability amounted to 0.958 in assay [2] (first compound 2 µM); 1.06 in assay [2] (first compound 6.325 µM); 0.914 with AZD6482 + Foretinib (first compound 0.08 µM); 0.868 with AZD6482 + Foretinib (first compound 0.253 µM); 1.03 with AZD6482 + Foretinib (first compound 0.8 µM); 0.785 with AZD6482 + Foretinib (first compound 2.53 µM). Moreover, the relative viability with AZD6482 + Foretinib (first compound 8 µM) was determined as 0.989; in the assay with AZD6482 + Crizotinib (first compound 0.08 µM) it was 0.84; in the assay with AZD6482 + Crizotinib (first compound 0.253 µM), 1.11; with AZD6482 + Crizotinib (first compound 0.8 µM), 0.823; in the assay with AZD6482 + Crizotinib (first compound 2.53 µM), 0.712; with AZD6482 + Crizotinib (first compound 8 µM), 0.989.

In the case of NCI-H1734, the relative viability in assay [1] (first compound 0.2 µM) was determined as 0.551; in assay [1] (first compound 0.6325 µM) it was 0.505; in assay [1] (first compound 2 µM), 0.502; in assay [1] (first compound 6.325 µM), 0.724; in assay [2] (first compound 0.2 µM), 0.813; in assay [2] (first compound 0.6325 µM) it was 0.76. The relative viability in assay [2] (first compound 2 µM) was determined as 0.778; in assay [2] (first compound 6.325 µM), 0.717; in the assay with AZD6482 + Foretinib (first compound 0.08 µM), 0.829; with AZD6482 + Foretinib (first compound 0.253 µM) it was 0.788; with AZD6482 + Foretinib (first compound 0.8 µM), 0.875; with AZD6482 + Foretinib (first compound 2.53 µM) it was 0.604. Moreover, the relative viability in the assay with AZD6482 + Foretinib (first compound 8 µM) is 0.671; with AZD6482 + Crizotinib (first compound 0.08 µM), 0.627; in the assay with AZD6482 + Crizotinib (first compound 0.253 µM) it was 0.733; with AZD6482 + Crizotinib (first compound 0.8 µM), 0.622; in the assay with AZD6482 + Crizotinib (first compound 2.53 µM), 0.47; with AZD6482 + Crizotinib (first compound 8 µM) it was 0.471.

With NCI-H1755, the relative viability in assay [1] (first compound 0.2 µM) worked out at 0.501; in assay [1] (first compound 0.6325 µM) it was 0.386; in assay [1] (first compound 2 µM) it was 0.461; in assay [1] (first compound 6.325 µM), 0.477; in assay [2] (first compound 0.2 µM), 0.777; in assay [2] (first compound 0.6325 µM) it was 0.67. Besides, the relative viability stood at 0.759 in assay [2] (first compound 2 µM); 0.573 in assay [2] (first compound 6.325 µM); 0.807 in the assay with AZD6482 + Foretinib (first compound 0.08 µM); 0.834 with AZD6482 + Foretinib (first compound 0.253 µM); 0.851 in the assay with AZD6482 + Foretinib (first compound 0.8 µM); 0.669 with AZD6482 + Foretinib (first compound 2.53 µM). For the same cell line, the relative viability with AZD6482 + Foretinib (first compound 8 µM) came to 0.603; in the assay with AZD6482 + Crizotinib (first compound 0.08 µM), 0.717; in the assay with AZD6482 + Crizotinib (first compound 0.253 µM) it was 0.769; with AZD6482 + Crizotinib (first compound 0.8 µM), 0.704; with AZD6482 + Crizotinib (first compound 2.53 µM), 0.545; in the assay with AZD6482 + Crizotinib (first compound 8 µM), 0.487.

Take NCI-H1915: the relative viability in assay [1] (first compound 0.2 µM) turned out to be 0.698; in assay [1] (first compound 0.6325 µM) it was 0.586; in assay [1] (first compound 2 µM) it was 0.72; in assay [1] (first compound 6.325 µM) it was 0.764; in assay [2] (first compound 0.2 µM) it was 0.506; in assay [2] (first compound 0.6325 µM), 0.426. Also, the relative viability in assay [2] (first compound 2 µM) turned out to be 0.514; in assay [2] (first compound 6.325 µM), 0.472; with AZD6482 + Foretinib (first compound 0.08 µM) it was 1.05; in the assay with AZD6482 + Foretinib (first compound 0.253 µM) it was 1.02; with AZD6482 + Foretinib (first compound 0.8 µM) it was 1.1; with AZD6482 + Foretinib (first compound 2.53 µM), 1. Moreover, the relative viability came to 1.09 with AZD6482 + Foretinib (first compound 8 µM); 0.845 in the assay with AZD6482 + Crizotinib (first compound 0.08 µM); 0.8 with AZD6482 + Crizotinib (first compound 0.253 µM); 0.935 with AZD6482 + Crizotinib (first compound 0.8 µM); 0.838 in the assay with AZD6482 + Crizotinib (first compound 2.53 µM); 0.863 with AZD6482 + Crizotinib (first compound 8 µM).

For the cell line NCI-H1944, the relative viability in assay [1] (first compound 0.2 µM) amounted to 0.534; in assay [1] (first compound 0.6325 µM) it was 0.476; in assay [1] (first compound 2 µM) it was 0.487; in assay [1] (first compound 6.325 µM) it was 0.51; in assay [2] (first compound 0.2 µM) it was 0.58; in assay [2] (first compound 0.6325 µM), 0.597. The relative viability in assay [2] (first compound 2 µM) was found to be 0.512; in assay [2] (first compound 6.325 µM), 0.517; in the assay with AZD6482 + Foretinib (first compound 0.08 µM), 0.866; with AZD6482 + Foretinib (first compound 0.253 µM) it was 0.892; with AZD6482 + Foretinib (first compound 0.8 µM), 0.872; with AZD6482 + Foretinib (first compound 2.53 µM) it was 0.686. Moreover, the relative viability in the assay with AZD6482 + Foretinib (first compound 8 µM) was 0.697; with AZD6482 + Crizotinib (first compound 0.08 µM), 1.01; with AZD6482 + Crizotinib (first compound 0.253 µM), 1.07; with AZD6482 + Crizotinib (first compound 0.8 µM) it was 1.12; with AZD6482 + Crizotinib (first compound 2.53 µM), 0.836; with AZD6482 + Crizotinib (first compound 8 µM), 0.792.

Take NCI-H1975: the relative viability in assay [1] (first compound 0.2 µM) stood at 0.78; in assay [1] (first compound 0.6325 µM), 0.813; in assay [1] (first compound 2 µM), 0.805; in assay [1] (first compound 6.325 µM), 0.775; in assay [2] (first compound 0.2 µM), 0.397; in assay [2] (first compound 0.6325 µM) it was 0.677. For the same cell line, the relative viability in assay [2] (first compound 2 µM) turned out to be 0.797; in assay [2] (first compound 6.325 µM), 0.654; in the assay with AZD6482 + Foretinib (first compound 0.08 µM), 0.889; in the assay with AZD6482 + Foretinib (first compound 0.253 µM), 0.872; with AZD6482 + Foretinib (first compound 0.8 µM), 0.951; with AZD6482 + Foretinib (first compound 2.53 µM), 0.709. Besides, the relative viability amounted to 0.558 with AZD6482 + Foretinib (first compound 8 µM); 0.841 in the assay with AZD6482 + Crizotinib (first compound 0.08 µM); 0.908 with AZD6482 + Crizotinib (first compound 0.253 µM); 1.03 in the assay with AZD6482 + Crizotinib (first compound 0.8 µM); 0.737 with AZD6482 + Crizotinib (first compound 2.53 µM); 0.764 in the assay with AZD6482 + Crizotinib (first compound 8 µM).

Turning to NCI-H1993, the relative viability in assay [1] (first compound 0.2 µM) stood at 0.73; in assay [1] (first compound 0.6325 µM), 0.844; in assay [1] (first compound 2 µM), 0.816; in assay [1] (first compound 6.325 µM), 0.826; in assay [2] (first compound 0.2 µM), 0.778; in assay [2] (first compound 0.6325 µM), 0.798. Further, the relative viability in assay [2] (first compound 2 µM) was found to be 0.855; in assay [2] (first compound 6.325 µM), 0.661; with AZD6482 + Foretinib (first compound 0.08 µM) it was 0.674; with AZD6482 + Foretinib (first compound 0.253 µM), 0.745; with AZD6482 + Foretinib (first compound 0.8 µM) it was 0.846; with AZD6482 + Foretinib (first compound 2.53 µM) it was 0.558. For the same cell line, the relative viability with AZD6482 + Foretinib (first compound 8 µM) was 0.562; with AZD6482 + Crizotinib (first compound 0.08 µM), 0.671; with AZD6482 + Crizotinib (first compound 0.253 µM), 0.74; with AZD6482 + Crizotinib (first compound 8 µM) it was 0.764.

For NCI-H2085, the relative viability in assay [1] (first compound 0.2 µM) was 0.992; in assay [1] (first compound 0.6325 µM), 0.992; in assay [1] (first compound 2 µM), 1.09; in assay [1] (first compound 6.325 µM), 0.947; in assay [2] (first compound 0.2 µM) it was 0.799; in assay [2] (first compound 0.6325 µM) it was 0.954. Also, the relative viability in assay [2] (first compound 2 µM) was determined as 0.802; in assay [2] (first compound 6.325 µM), 0.724; in the assay with AZD6482 + Foretinib (first compound 0.08 µM), 0.62; with AZD6482 + Foretinib (first compound 0.253 µM) it was 0.637; with AZD6482 + Foretinib (first compound 0.8 µM) it was 0.338; in the assay with AZD6482 + Foretinib (first compound 2.53 µM), 0.308. The relative viability with AZD6482 + Foretinib (first compound 8 µM) was 0.29; in the assay with AZD6482 + Crizotinib (first compound 0.08 µM), 0.818; with AZD6482 + Crizotinib (first compound 0.253 µM), 0.537; with AZD6482 + Crizotinib (first compound 0.8 µM), 0.519; with AZD6482 + Crizotinib (first compound 2.53 µM), 0.316; in the assay with AZD6482 + Crizotinib (first compound 8 µM) it was 0.358.

Values taken from the supplement of paper PMC10307832.
